# Experimental data reported in the CATMoS acute toxicity set (Mansouri et al. 2021).
# Assay: GHS categories as the set defines them, by LD50: 1 up to 5, 2 up to 50, 3 up to 300, 4 up to 2000, 5 above 2000 mg/kg
# Settings: rat; in vivo; po
# Source text: […]The data set underlying the modeling effort for this project was initially compiled by NICEATM and U.S. EPA’s CCTE. Briefly, LD50 data were collected from rat acute oral systemic toxicity tests, including limit tests, ranges/confidence intervals, and discrete LD50 values. The full data set included 21,200 LD50 entries for 15,688 substances. […] Data were reviewed to ensure that LD50 values with obvious errors in the extracted data such as unit conversion errors (e.g., comma and decimal separator misplacements) were either fixed or removed. After this review, 16,209 LD50 values remained. Many of the chemicals represented had multiple LD50 entries, requiring that a single representative value per Chemical Abstracts Service Registry Number (CASRN) identifier be defined to facilitate modeling efforts. Based on ATWG feedback and to define the representative LD50 as a protective value while accounting for the distribution across multiple LD50s, the median of the lowest quartile was computed using only discrete LD50 values (omitting limit test data and range and confidence interval data). A detailed summary of the data compilation is available online on the NICEATM webpage dedicated to the collaborative modeling project (NTP 2020).
# […][…] For categorical designations, limit test and range/confidence interval LD50 data were integrated wherever possible. As such, the number of chemicals with end point values/calls varies across the modeling end points (Table 3) based on whether chemicals had representative LD50 values and/or other data. If a chemical had both, the representative value was used to determine categorical calls rather than limit test data. Some data were useable only for certain end points and categories depending on the thresholds. For example, ranges that spanned multiple hazard categories were considered only for the binary (very toxic/nontoxic) end points and omitted from rendering a determination for hazard category assignment.
# […]The final data set comprising 11,992 chemicals was split into training and evaluation sets […], respectively. This process was performed semirandomly by ordering chemicals based on the five end points (categorical and continuous LD50 values) and partitioning every fourth record into the evaluation set accordingly. This approach was taken to ensure an equivalent distribution of the LD50 values and the different hazard categories between the training and the evaluation sets without supervised sampling of the chemicals based on structures (Figure 1A). The sources of the chemical structures were also kept equivalent between the two sets, with chemical structures obtained from DSSTox, being the highest quality, representing over 75% of each set (Figure 1B).
row,Structure (SMILES),GHS category
1,NC(=O)Oc1ccccc1C(=O)Oc1ccc(Cl)cc1,5
2,NS(=O)(=O)C(F)(F)C(F)(F)C(F)(F)C(F)(F)C(F)(F)C(F)(F)C(F)(F)C(F)(F)F,3
3,CC(C)C1=CC2=CC[C@H]3[C@](C)(CO)CCC[C@]3(C)[C@H]2CC1,5
4,O=C(Nc1ccc(NC(=O)c2cc3ccccc3c(N=Nc3cc(Cl)ccc3Cl)c2O)cc1)c1cc2ccccc2c(N=Nc2cc(Cl)ccc2Cl)c1O,5
5,COC(OC)N(C)C,5
6,CCCCCCCCCCCCCCCNP1(=S)OCc2cc([N+](=O)[O-])ccc2O1 (stereo not given),3
7,CCCCCCCCCCCCCCCCOP(=O)(O)O,5
8,CN/C(=N\[N+](=O)[O-])NCc1cnc(Cl)s1,5
9,CCC=CCC=CCC=CCC=CCC=CCCCCCC(=O)O,5
10,Oc1cc(Cl)cc(Br)c1,5
11,Clc1ccc(I)cc1Cc1ccc(OC2CCOC2)cc1 (stereo not given),5
12,CC(=C(CCS(C)=O)SSC(CCS(C)=O)=C(C)N(C=O)Cc1cnc(C)nc1N)N(C=O)Cc1cnc(C)nc1N (stereo not given),4
13,Cc1cccc2ncc(C(=O)NC34CC5CC(CC(C5)C3)C4)c(=O)n12,3
14,CCCOc1ccc(-c2ccc(C#N)cc2)cc1,5
15,Cc1cc(O)c(C)c2c1OC(C)(CCCC(C)CCCC(C)CCCC(C)C)CC2 (racemic),5
16,CCOC(=O)c1cnn(-c2cccc(C)c2)c1C#N,4
17,CCCNC(=O)c1cnc2cccc(C)n2c1=O,3
18,CCC(C)Cl (stereo not given),5
19,O=S(=O)(c1ccc(Cl)cc1)c1ccc(Cl)cc1,5
20,CNC(=O)Oc1cc(C)cc(C)c1C,3
21,C[Si]1(C)O[Si](C)(c2ccccc2)O[Si](C)(C)O[Si](C)(c2ccccc2)O1 (stereo not given),5
22,O=C1c2ccccc2C(=O)N1CC1=Nc2ccccc2Cc2ccccc21,5
23,O=CC=Cc1ccco1,4
24,CCS(=O)(=O)c1cccnc1S(=O)(=O)NC(=O)Nc1nc(OC)cc(OC)n1,5

row,Structure (SMILES),GHS category
1,COC(=O)C1=C(C)NC(COC(N)=O)=C(C(=O)OC(C)C)C1c1cccc(Cl)c1Cl (stereo not given),5
2,COc1ccccc1OCCNCC(O)c1ccc(C)c(S(N)(=O)=O)c1 (stereo not given),5
3,CC1CC2(CC(C)OC2=O)C(=O)O1 (stereo not given),5
4,C[N@+]1(CCNP(=S)(NCC[N@@+]2(C)Cc3c(ccc4c3OCO4)[C@@H]3[C@H]2c2cc4c(cc2C[C@@H]3O)OCO4)NCC[N@@+]2(C)Cc3c(ccc4c3OCO4)[C@@H]3[C@H]2c2cc4c(cc2C[C@@H]3O)OCO4)Cc2c(ccc3c2OCO3)[C@@H]2[C@H]1c1cc3c(cc1C[C@@H]2O)OCO3,4
5,NCCNS(=O)(=O)c1cccc2cnccc12,4
6,CC[C@H]1C[C@@H]2CC[C@@H](O2)[C@@H](C)C(=O)O[C@H](CC)C[C@H]2CC[C@H](O2)[C@H](C)C(=O)O[C@@H](CC)C[C@@H]2CC[C@@H](O2)[C@@H](C)C(=O)O[C@H](CC)C[C@H]2CC[C@H](O2)[C@H](C)C(=O)O1,5
7,CC[C@H]1C[C@H]2[C@@H]3CCC4=CC(=O)CC[C@@H]4[C@H]3CC[C@]2(C)[C@H]1OC(C)=O,5
8,Cc1cc2nc3c(=O)[nH]c(=O)nc-3n(C[C@H](O)[C@H](O)[C@H](O)CO)c2cc1C,5
9,Cc1ccc(OC(=O)c2ccccc2OC(N)=O)cc1,5
10,CCCCCCCCCCCCOC(=O)CCSCCC(=O)OCCCCCCCCCCCC,5
11,C=CC(=O)Oc1c(Br)cc(Cl)c2cccnc12,5
12,C=C(C)C(=O)OCCOC(=O)c1ccc2c(c1)C(=O)OC2=O,5
13,CCCCCCCCCCCCCCCCCCCCCC(=O)Nc1ccn([C@@H]2O[C@H](CO)[C@@H](O)[C@@H]2O)c(=O)n1,4
14,CCC(C)n1ncn(-c2ccc(N3CCN(c4ccc(O)cc4)CC3)cc2)c1=O (stereo not given),5
15,COc1cc(C=CC(=O)CC(=O)C=Cc2ccc(O)c(OC)c2)ccc1O,5
16,CC1CC(OC(=O)C(Oc2ccccc2Cl)C(C)C)CC(C)(C)C1 (stereo not given),5
17,O=C(Nc1ccc(Cl)cc1)Nc1ccc(Cl)c(Cl)c1,5
18,O=c1[nH]n(-c2cccc(C(F)(F)F)c2)c2ncccc12,4
19,c1ccc2sc(SSc3nc4ccccc4s3)nc2c1,5
20,OCCCCSc1ccc(Cl)cc1,4
21,COc1cccc(OC)c1C(=O)NC(=O)Nc1c(F)cccc1F,4
22,CCN(CC)CC1CC2(CC(CN(CC)CC)OC2=O)C(=O)O1 (stereo not given),5
23,COc1ccc2c(c1)CCN(c1ccccc1)C2c1ccccc1OC (stereo not given),4
24,CC(=O)OC1CC(C)CCC1C(C)C (stereo not given),5

row,Structure (SMILES),GHS category
1,O=C(c1ccccc1)c1ccc2[nH]c(=O)oc2c1,5
2,CSC(=O)c1cccc2nnsc12,5
3,CN(Cc1ccc(C(C)(C)C)cc1)Cc1cccc2ccccc12,5
4,CC(=O)N1CCSC1C(=O)Oc1c(C)ncc(CO)c1CO (stereo not given),5
5,CN(C)C(=O)OC1N=C(c2ccccc2)c2cc(Cl)ccc2N(C)C1=O (stereo not given),5
6,O=C(O)c1ccccc1Nc1ccc(Cl)c2ccccc12,5
7,CN[C@H](CC(N)=O)C(=O)NC(=O)[C@@H](N[C@@H]1C(=O)N2C1SC(C)(C)[C@@H]2C(=O)O)c1ccc(O)cc1 (stereo not given in full),5
8,C=CC(C)(CCC=C(C)C)OC(=O)C(C)C (stereo not given),5
9,Fc1ccc(Oc2ccnc3cc(Cl)cc(Cl)c23)cc1,5
10,CC(C)(C)C1CCC(OC(=O)Cl)CC1 (stereo not given),5
11,CCCCCCCCCCCCCC(=O)OC(C)C,5
12,CC(C)CCCC(C)C1CCC2C3CCC4CC(OP(=O)(O)O)CCC4(C)C3CCC12C (stereo not given),5
13,CCC(C)(CC)c1ccc(NC(=O)c2c(OC)cccc2OC)nn1,4
14,CC(C)(C)c1ccc2oc(-c3ccc(C=Cc4ccc(-c5ccccc5)cc4)cc3)nc2c1,5
15,CN(CC(=O)O)N=O,5
16,CC(C)CCOCCC(C)C,5
17,CC(O)C1=CCC(C(C)(C)O)CC1O (stereo not given),5
18,Cc1ccc(C(=O)O)cc1[N+](=O)[O-],5
19,CC(=O)Nc1ccc(C2=NN(C(C)=O)C(C)Cc3cc4c(cc32)OCO4)cc1 (stereo not given),4
20,CC[N+](C)(CC)CCSC1=Nc2ccccc2N=C(c2ccc(Sc3ccccc3)cc2)C1,5
21,CCCCC1C(=O)N(c2ccccc2)N(c2ccc(S(C)(=O)=O)cc2)C1=O (stereo not given),4
22,CCCCC(=O)O[C@]1(C(=O)COC(C)=O)CC[C@H]2[C@@H]3CCC4=CC(=O)C=C[C@]4(C)[C@H]3[C@@H](O)C[C@@]21C,5
23,N[C@@H](CSCC(=O)O)C(=O)O,5
24,CO[C@H]1C=CO[C@@]2(C)Oc3c(C)c(O)c4c(O)c(c5c(nc6cc(C)ccn65)c4c3C2=O)NC(=O)C(C)=CC=C[C@H](C)[C@H](O)[C@@H](C)[C@@H](O)[C@@H](C)[C@H](OC(C)=O)[C@@H]1C,5

row,Structure (SMILES),GHS category
1,COc1cc(OC)nc(NC(=O)NS(=O)(=O)c2ncccc2C(=O)N(C)C)n1,5
2,CC(=O)COc1nn(-c2cccc(C(F)(F)F)c2)c2ncccc12,4
3,CN(C)CCCOc1nn(-c2cccc(C(F)(F)F)c2)c2ncccc12,4
4,COc1ccc(COC(=O)Cc2ccccc2)cc1,5
5,CCC1(C)Oc2cccc(OC(=O)N(C)C(C)=O)c2O1 (stereo not given),3
6,COC[C@H]1CO[C@@](Cn2cncn2)(c2cc3ccccc3o2)O1,4
7,CNC(=O)C(=NNc1ccc([N+](=O)[O-])cc1OC)C(C)=O,5
8,CCOC(=O)C(Cl)C(=O)OCC,4
9,C=C(C)C1CCC(C)C(OC(C)=O)C1 (stereo not given),5
10,CC(=O)OCCOC(C)C,4
11,CN1CC(c2ccon2)CC2c3cccc4[nH]cc(c34)CC21 (stereo not given),4
12,COC(=O)CC#N,5
13,C=CC(=O)OCC(CC)(COCC(CC)(COC(=O)C=C)COC(=O)C=C)COC(=O)C=C,5
14,C=COCCCCCCCCCCCCCCCCCC,5
15,CSC(C)(C)SC,5
16,CC/C=C\CCOC(=O)CC,5
17,C[N+]1(CC(O)COc2cccc3c2CCC(=O)N3)CCC(c2ccccc2)CC1 (stereo not given),4
18,CC(C)=CCCC(C)(C)O,5
19,N#CNC1=NCCS1,4
20,CCOc1ccc(C2(C(=O)OC(C#N)c3cccc(Oc4ccccc4)c3)CC2(Cl)Cl)cc1 (stereo not given),5
21,CCOP(=S)(OCC)ON=C(C#N)c1ccccc1Cl,5
22,Cc1onc(-c2ccccc2)c1C(=O)N[C@@H]1C(=O)N2[C@@H]1SC(C)(C)[C@@H]2C(=O)O,5
23,CC(C)OC(=O)[C@@H](C)N(C(=O)c1ccccc1)c1ccc(F)c(Cl)c1,5
